Assay results as given in patent US20040214897A1, “Uses for 2-amino-2-propane-1,3-diols” (priority 2001, published 2004).

Assays:
[1] = test system: yeast strains JK9-3dα, MH272-1da and MH272-1da/α; test: Yeast growth on media containing the compound, compared with medium without compound; type: cell-based, Saccharomyces Cerevisie; details: for antifungal activity on Saccharomyces Cerevisie: general statement
Method: (§1) The compound, e.g. FTY720, is dissolved in distilled water to be 10 mM, the resulting stock solution is kept at 4° C. and diluted to the appropriated concentrations with medium used for yeast culture. Standard laboratory yeast strain in this case derivatives of JK9-3d (a, alpha and diploid) are plated on to media containing the varying concentrations of the compound to be tested and their growth are compared to that in medium without the compound. Cultivation and maintenance of cells are carried out in YEPD medium (Difco) or synthetic medium (SD). The growth of both yeast strains JK9-3dα, MH272-1da and MH272-1da/α is inhibited by a compound of formula I, e.g. FTY720, at 30 μM in the YPED solid medium at 30° C. or in minimal medium at 19° C.

[2] = test system: peripheral blood lymphocytes (PBL); details: background statement; cited from earlier work
JK9-3dα transformants = test: FTY720 resistance of JK9-3dα transformants carrying plasmid-borne genes; type: cell-based, Saccharomyces Cerevisie
Source text: If the growth sensitivity of these yeast strains is due to inhibition of specific functional protein targets in the cells, such inhibition could be relieved by overexpressing such a function through introduction of multiple genetic copies of such function. Accordingly the FTY720 sensitive strain JK9-3dα has been transformed with yeast genomic DNA libraries cloned in high copy plasmid (2 μm) URA3 selectable using Yeast Transformation System (Clontech). FTY720-resistant transformants are selected on synthetic medium lacking uracil in the presence of 30 μM of FTY720. The total number of URA3+transformants is >20,000. The first selection Is performed at 19° C. because even the parent yeast strain JK9-3dα is resistant to FTY720 in synthetic medium at 30° C. After the first selection for resistance, FTY720-resistant growth phenotype of transformants is reconfirmed by restreaking individual colonies on to medium with the compound. Plasmid which conferred resistance to FTY720 are recovered according to standard methods, amplified in E. coli and reintroduced into JK9-3da for the confirmation of FTY720 resistance. The DNA fragments which conferred FTY720 resistance are isolated to determine sequence of both terminii of insert DNA and the DNA sequence is compared with Saccharomyces Genome Database. Then, the responsible single genes for the FTY720 resistance are further identified from the DNA fragments due to their common presence in different fragments and by using specific restriction enzymes to subclone them into yeast plasmid vector as shorter fragments (Genes Vap1, UBP5, UBP11 and Caj1 are identified by this method).
From each fragment or resistance plasmid, single responsible genes, which overcome the anti-fungal effects of this compound at the increased copy number, are identified by subcloning using restriction enzymes. One is amino acid transporter VAP1, the others are a putative deubiquitinating enzyme UBP11 and UBP5. The last one is CAJ1 (heat shock protein).
The glutamine transporter GNP1 gene (38) is PCR amplified out of this fragment derived from the FTY720 resistant mutant or parent wild-type genomic DNA, then cloned into the same plasmid vector pRS416.
JK9-3dα wild-type cells are transformed with the yeast genomic DNA library constructed from FTY720 resistant dominant mutant in the low-copy-number vector pRS416. FTY720-resistant transformants are selected in SD medium in the presence of 30 μM of FTY720 as mentioned above. Plasmid inserts are sequenced and gene is identified as GNP1.

[3] = test system: prototrophic derivatives of JK9-3dα; test: Growth sensitivity of prototrophic derivatives of JK9-3dα to FTY720; type: cell-based, Saccharomyces Cerevisie
Method: as §1, with “(SD).” for “(SD). The growth of both yeast strains JK9-3dα, MH272-1da and MH272-1da/α is inhibited by a compound of formula I, e.g. FTY720, at 30 μM in the YPED solid medium at 30° C. or in minimal medium at 19° C.”
If so, yeast that are able to synthesize amino acids might have a growth advantage in the presence of FTY720 compared with isogenic auxotrophic yeast that require amino acid import from the medium to grow. Therefore, the influence of nutrient auxotrophies present in JK9-3dα (trp1 his4 leu2 ura3), which are used to identify target molecules of FTY720, on the sensitivity to this compound is tested. In contrast to the parental auxotrophic strain, fully prototrophic TRP1 HIS4 LEU2 URA3 derivative of JK9-3dα is resistant to 30 μM of FTY720. […] It therefore seems that the molecular targets and pathways other than that of 30 μM are involved in the effects of 100 μM of FTY720. Then, in order to identify which nutrient transport is inhibited by 30 μM of FTY720, prototrophic strain for each nutrient are constructed in JK9-3dα.

Bul1-disrupted yeast = test: Sensitivity of gene-disrupted yeast strains to FTY720; type: cell-based, Saccharomyces Cerevisie
Method: as §1, with “(SD).” for “(SD). The growth of both yeast strains JK9-3dα, MH272-1da and MH272-1da/α is inhibited by a compound of formula I, e.g. FTY720, at 30 μM in the YPED solid medium at 30° C. or in minimal medium at 19° C.”
Only one genomic DNA fragment in pRS416 confers sensitivity to FTY720. This DNA contains 4 intact genes (NRC1, Bul1, RCE1, DSK2). […] Intact Bul1 gene in low-copy-number plasmid confers sensitvity to FTY720 in the resistant recessive mutants, implying that the mutation happens in Bul1 gene in the recessive mutant yeast.

Rsp5 mutant yeast = test: Sensitivity of Rsp5 mutant to FTY720; type: cell-based, Saccharomyces Cerevisie; details: 30 μM
Method: as §1, with “(SD).” for “(SD). The growth of both yeast strains JK9-3dα, MH272-1da and MH272-1da/α is inhibited by a compound of formula I, e.g. FTY720, at 30 μM in the YPED solid medium at 30° C. or in minimal medium at 19° C.”
In order to clarify the role of the ubiquitin pathway in FTY720 action, the sensitivity of Rsp5 (Bul1 binding ubiquitin ligase) mutant to FTY720 is tested. Rsp5 mutant, in which Rsp5 expression level is reduced to less than 10% of wild-type due to the Ty1 transposed insertion in the promoter, is used in this study, since the complete disruption of Rsp5 gene is lethal. This Rsp5 mutant is resistant to 30 μM of FTY720 like Bul1 disrupted-yeast.

yeast cells = details: cited from earlier work
several yeast strains = details: background statement; cited from earlier work

**Q.** For `NC(CO)(CO)CCc1ccc(C(=O)CCCCc2ccccc2)cc1` [Compound Y, 2-amino-2-{2-[4-(1-oxo-5-phenylpentyl)phenyl]ethyl}propane-1,3-diol], which “antifungal activity on Saccharomyces Cerevisie” value [1] is on record?
**A.** The value was “exhibits an antifungal activity”.

**Q.** And the “peripheral blood lymphocytes (PBL) in vivo” value [2]?
**A.** Its value is “rapid and marked reduction”.

**Q.** For `CCCCCCCCc1ccc(CCC(N)(CO)CO)cc1` [FTY720, 2-Amino-2-[2-(4-octylphenyl)ethyl]propane-1,3-diol], which “growth of yeast strains JK9-3dα, MH272-1da and MH272-1da/α” value ([1]; 30 μM, YPED solid medium at 30° C. or minimal medium at 19° C.) is on record?
**A.** Its value is “inhibited”.

**Q.** And the “antifungal activity on Saccharomyces Cerevisie” value [1]?
**A.** The value was “exhibits an antifungal activity”.

**Q.** What about the “sensitivity of parent yeast strain JK9-3dα” value ([1]; synthetic medium at 30° C.) of the same compound?
**A.** The value was “resistant”.

**Q.** What about the “anti-fungal effect with wild type TAT2 gene in low-copy number-plasmid” value (JK9-3dα transformants) of the same compound?
**A.** Its value is “overcomes the anti-fungal effects”.

**Q.** What about the “growth-inhibitory effect with VAP1, UBP11, UBP5 or CAJ1 in high-copy-number plasmid” value (JK9-3dα transformants; 30 μM, JK9-3dα) of the same compound?
**A.** Its value is “overcome the growth-inhibitory effects”.

**Q.** What about the “anti-fungal effect with mutant-derived GNP1 in low-copy-number plasmid” value (JK9-3dα transformants; 30 μM, JK9-3dα transformants, pRS416) of the same compound?
**A.** The value was “confers resistance”.

**Q.** And the “growth inhibition with multiple copies of VAP1” value (JK9-3dα transformants; 100 μM)?
**A.** Its value is “fail to overcome the growth inhibition”.

**Q.** And the “anti-fungal effect with wild-type GNP1 gene in low-copy-number plasmid” value (JK9-3dα transformants; JK9-3dα transformants, pRS416)?
**A.** Its value is “not inhibited”.

**Q.** And the “anti-fungal effect with VAP1 (and TAP2) in low-copy-number plasmid” value (JK9-3dα transformants; genes from mutant-derived and wild-type genomic DNA libraries)?
**A.** The value was “confer FTY720 resistance”.

**Q.** And the “sensitivity of fully prototrophic TRP1 HIS4 LEU2 URA3 derivative of JK9-3dα” value ([3]; 30 μM)?
**A.** The value was “resistant”.

**Q.** What about the “sensitivity of single TRP1, HIS4, LEU2 or URA3 prototrophic strains” value ([3]; 30 μM, JK9-3dα background) of the same compound?
**A.** Its value is “Neither of each TRP1, HIS4, LEU2 or URA3 prototrophic strain is resistant”.

**Q.** And the “sensitivity of strain with both TRP1 and LEU2” value ([3]; 30 μM, JK9-3dα background)?
**A.** The value was “sufficient to confer resistance”.

**Q.** And the “sensitivity of prototrophic yeast” value ([3]; 100 μM)?
**A.** The value was “still sensitive”.

**Q.** And the “peripheral blood lymphocytes (PBL) in vivo” value [2]?
**A.** Its value is “rapid and marked reduction”.

**Q.** What about the “sensitivity of Bul1-disrupted yeast after introduction of Bul1 gene in low-copy-number plasmid pRS416” value (Bul1-disrupted yeast) of the same compound?
**A.** The value was “reverses the phenotype from resistance to sensitivity”.

**Q.** What about the “sensitivity of Bul1-disrupted yeast” value (Bul1-disrupted yeast; 30 μM) of the same compound?
**A.** The value was “confers resistance”.

**Q.** And the “sensitivity of Rsp5 mutant (Rsp5 expression less than 10% of wild-type)” value (Rsp5 mutant yeast)?
**A.** The value was “resistant”.

**Q.** With `CCCCCCCCCCCCCC[C@@H](O)[C@@H](O)[C@@H](N)CO` [PHS, phytoshingosine] as the compound, how does the tryptophan uptake (yeast cells) read?
**A.** Its tryptophan uptake is “diminishes tryptophan uptake”.

**Q.** Which “growth of several yeast strains” value (several yeast strains) does the source give for cyclosporin A [CsA] here?
**A.** The value was “potently inhibit”.
